The test system of assay [1] is Cystic fibrosis transmembrane conductance regulator (Homo sapiens), P13569 [F508del]. Briefly: Agonist activity at CFTR-deltaF508 mutant expressed in NIH3T3 cells assessed as increase in forskolin-stimulated current at 20 uM by whole cell assay relative to control. It is filed as functional, cell-based.
Assay [2] deals with Cystic fibrosis transmembrane conductance regulator (Homo sapiens), P13569 [K1250A]. Briefly: Agonist activity at CFTR-K1250A mutant assessed as increase in forskolin-stimulated current at 5 uM. It counts as functional.
Assay [3] concerns Cystic fibrosis transmembrane conductance regulator (Homo sapiens), P13569 [F508del]. Briefly: Agonist activity at CFTR-deltaF508 mutant expressed in NIH3T3 cells assessed as increase in forskolin-stimulated current at 30 uM by whole cell assay relative to control. It counts as functional, cell-based.
In assay [4] the target is Cystic fibrosis transmembrane conductance regulator (Homo sapiens, UniProt P13569, F508DEL). The assay is described as follows: Agonist activity at CFTR-deltaF508 mutant expressed in NIH3T3 cells assessed as increase in forskolin-stimulated current. It is filed as functional, cell-based.
The test system of assay [5] is Cystic fibrosis transmembrane conductance regulator (Homo sapiens), P13569 [F508del]. Briefly: Agonist activity at CFTR-deltaF508 mutant expressed in NIH3T3 cells assessed as increase in forskolin-stimulated current at 30 uM by whole cell assay relative to genistein. It is filed as functional, cell-based.

Sequence of Cystic fibrosis transmembrane conductance regulator (Homo sapiens), P13569 [F508del] (P13569 as listed by the source): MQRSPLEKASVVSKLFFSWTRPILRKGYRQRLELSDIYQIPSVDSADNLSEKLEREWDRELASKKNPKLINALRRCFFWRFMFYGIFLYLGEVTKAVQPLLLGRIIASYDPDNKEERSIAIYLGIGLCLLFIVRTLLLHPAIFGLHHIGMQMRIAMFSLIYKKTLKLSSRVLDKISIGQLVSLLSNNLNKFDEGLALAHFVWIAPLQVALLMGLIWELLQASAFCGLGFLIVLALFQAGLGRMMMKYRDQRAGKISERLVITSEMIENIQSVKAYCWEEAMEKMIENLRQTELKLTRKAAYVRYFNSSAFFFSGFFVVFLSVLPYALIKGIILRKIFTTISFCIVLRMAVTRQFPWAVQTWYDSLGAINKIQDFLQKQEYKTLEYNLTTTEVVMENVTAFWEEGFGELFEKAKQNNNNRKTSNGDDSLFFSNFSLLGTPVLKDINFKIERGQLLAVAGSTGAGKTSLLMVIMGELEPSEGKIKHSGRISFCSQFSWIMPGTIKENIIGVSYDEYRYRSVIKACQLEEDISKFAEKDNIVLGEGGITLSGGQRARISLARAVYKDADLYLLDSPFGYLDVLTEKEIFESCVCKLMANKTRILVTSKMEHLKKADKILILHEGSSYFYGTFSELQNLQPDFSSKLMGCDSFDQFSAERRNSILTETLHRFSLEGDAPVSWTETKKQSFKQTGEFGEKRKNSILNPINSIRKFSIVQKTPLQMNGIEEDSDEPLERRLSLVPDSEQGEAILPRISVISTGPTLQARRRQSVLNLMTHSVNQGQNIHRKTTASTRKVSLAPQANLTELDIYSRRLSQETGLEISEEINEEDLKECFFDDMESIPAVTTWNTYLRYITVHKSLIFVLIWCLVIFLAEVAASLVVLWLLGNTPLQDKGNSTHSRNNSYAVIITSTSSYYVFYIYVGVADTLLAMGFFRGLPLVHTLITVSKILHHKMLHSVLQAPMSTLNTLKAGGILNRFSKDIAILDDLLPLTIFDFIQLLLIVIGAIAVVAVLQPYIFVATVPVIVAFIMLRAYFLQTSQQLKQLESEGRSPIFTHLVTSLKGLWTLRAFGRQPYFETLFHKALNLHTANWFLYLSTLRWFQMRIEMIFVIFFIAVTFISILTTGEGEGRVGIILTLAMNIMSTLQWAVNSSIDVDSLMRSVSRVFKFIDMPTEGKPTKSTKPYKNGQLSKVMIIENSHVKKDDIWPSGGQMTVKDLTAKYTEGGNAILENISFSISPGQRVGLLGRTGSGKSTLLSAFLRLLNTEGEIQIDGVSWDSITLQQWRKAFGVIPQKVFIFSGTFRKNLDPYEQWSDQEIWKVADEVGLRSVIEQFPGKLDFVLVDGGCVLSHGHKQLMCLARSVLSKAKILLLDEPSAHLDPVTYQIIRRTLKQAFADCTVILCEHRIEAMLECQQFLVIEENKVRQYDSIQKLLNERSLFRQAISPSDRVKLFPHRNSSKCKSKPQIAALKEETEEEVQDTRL
Sequence of Cystic fibrosis transmembrane conductance regulator (Homo sapiens), P13569 [K1250A] (P13569 whole entry K1250A): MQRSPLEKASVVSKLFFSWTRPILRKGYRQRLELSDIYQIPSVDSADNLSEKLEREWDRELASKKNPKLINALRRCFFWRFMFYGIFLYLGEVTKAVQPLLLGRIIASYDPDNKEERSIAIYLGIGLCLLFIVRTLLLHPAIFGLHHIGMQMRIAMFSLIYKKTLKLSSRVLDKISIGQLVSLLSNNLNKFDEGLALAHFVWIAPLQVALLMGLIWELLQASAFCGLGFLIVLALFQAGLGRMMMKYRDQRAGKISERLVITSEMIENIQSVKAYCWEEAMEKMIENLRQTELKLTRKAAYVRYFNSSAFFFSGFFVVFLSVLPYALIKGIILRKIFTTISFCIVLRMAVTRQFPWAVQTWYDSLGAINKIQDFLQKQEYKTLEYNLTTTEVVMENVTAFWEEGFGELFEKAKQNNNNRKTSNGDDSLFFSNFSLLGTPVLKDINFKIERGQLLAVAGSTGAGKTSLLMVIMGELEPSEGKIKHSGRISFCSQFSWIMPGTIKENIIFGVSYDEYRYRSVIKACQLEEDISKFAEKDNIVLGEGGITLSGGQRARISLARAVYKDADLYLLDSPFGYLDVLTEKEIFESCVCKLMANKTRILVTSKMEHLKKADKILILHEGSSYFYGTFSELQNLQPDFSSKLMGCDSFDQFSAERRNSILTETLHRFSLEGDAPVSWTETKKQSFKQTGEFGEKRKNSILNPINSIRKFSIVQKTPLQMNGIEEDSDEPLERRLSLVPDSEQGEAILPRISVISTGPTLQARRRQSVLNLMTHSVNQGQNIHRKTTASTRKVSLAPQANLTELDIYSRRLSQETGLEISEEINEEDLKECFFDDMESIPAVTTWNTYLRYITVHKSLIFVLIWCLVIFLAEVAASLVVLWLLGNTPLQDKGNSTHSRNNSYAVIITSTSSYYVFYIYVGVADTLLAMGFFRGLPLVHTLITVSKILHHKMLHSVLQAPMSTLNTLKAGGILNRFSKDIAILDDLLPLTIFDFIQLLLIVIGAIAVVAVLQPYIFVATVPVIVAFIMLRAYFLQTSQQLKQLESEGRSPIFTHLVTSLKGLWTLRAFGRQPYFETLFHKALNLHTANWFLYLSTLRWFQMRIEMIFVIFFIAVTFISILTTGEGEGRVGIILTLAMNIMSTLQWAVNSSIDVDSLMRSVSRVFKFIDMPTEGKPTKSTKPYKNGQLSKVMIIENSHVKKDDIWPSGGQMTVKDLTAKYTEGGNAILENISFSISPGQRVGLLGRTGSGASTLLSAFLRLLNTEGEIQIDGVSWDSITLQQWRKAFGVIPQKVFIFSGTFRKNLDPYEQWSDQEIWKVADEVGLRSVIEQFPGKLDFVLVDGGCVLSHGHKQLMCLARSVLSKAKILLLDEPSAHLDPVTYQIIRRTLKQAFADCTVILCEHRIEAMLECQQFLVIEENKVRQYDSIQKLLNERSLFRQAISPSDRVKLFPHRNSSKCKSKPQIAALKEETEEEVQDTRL
Sequence of Cystic fibrosis transmembrane conductance regulator (P13569 as listed by the source): as the sequence (P13569 as listed by the source) above

As to `O=c1c(-c2ccc(O)cc2)coc2cc(O)cc(O)c12`, the fold change (FC) in assay [1] amounted to 8.29.
With `O=c1cc(-c2ccncc2)oc2c1ccc1ccccc12`, the fold change (FC) was determined as 1.11 in assay [2], 3.69 in assay [1] and 3.76 in assay [3]. In addition, in assay [4], the EC50 – broadly, the midpoint of the concentration-response curve – was 3.5 µM. For the same molecule, the Activity in assay [5] turned out to be 31%.

These data come from ChEMBL document CHEMBL1155125 (Bioorg Med Chem Lett, 2008).
